Test results from patent US7915223B2, “Antimicrobial agents” (priority 2004, dated 2011).
Where two headings read alike, the source gives them in different places. Bridge positions count the residues as written; N and C are the ends. Ends that are not written are not given here. Peptide text beside a SMILES is read from it.

Assays:
[1] = Hydrophobicity estimation by reversed-phase HPLC (percent acetonitrile at elution); assay type: physicochemical; settings: percent of acetonitrile at which the polymer was eluted on reversed-phase C18 HPLC
Experimental: HPLC chromatograms were performed on C18 columns (Vydak, 250 mm×4.6 or 10 mm) using a linear gradient of acetonitrile in water (1% per minute), both solvents contained 0.1% trifluoroacetic acid. The purified polymers were subjected to mass spectrometry (ZQ Waters) to confirm their composition and stored as a lyophilized powder at −20° C. Prior to being tested, fresh solutions were prepared in water, mixed by vortex, solubilized by ultrasound, centrifuged and then diluted in the appropriate medium.
In order to estimate the hydrophobicity of each polymer, the polymer was eluted with a linear gradient of acetonitrile (1% per minute) on an HPLC reversed-phase C18 column, and the percent of acetonitrile at which the polymer was eluted was used for hydrophobicity estimation (see, “ACN (%)” in Table 3 below).

[2] = Hemolysis assay; assay type: cell-based, human; settings: lytic concentration inducing 50% lysis of human red blood cells in PBS, read-out: LC50 (the source's name)
Experimental: (§1) The polymer's membranolytic potential was determined against human red blood cells (RBC) in phosphate buffer solution (PBS).
(§2) Alternatively, a 10% hematocrit was used and hemolysis was determined after one hour incubation.

[3] = tested on: microorganisms in the saliva of healthy human volunteers; settings: fresh human saliva 1:1 with 100 μM agent, pH 5
Experimental: A solution of the saliva with no anti-bacterial agent served as a control. […] Each of the solutions was spread over a LA plate, and the plated saliva samples were incubated overnight at 37° C. without aeration. The colonies were enumerated and counted to determine the microbicidal effect of the drug. The values of viable colony forming units (CFU) were determined as described above.

[4] = tested on: human red blood cells (RBC); test: Hemolysis assay; assay type: cell-based; settings: human RBC, 10% hematocrit, 1 hour at 37° C., 31 μM, 94 μM and 156 μM
Experimental: as §1, §2

Row | Molecule | ACN (%) [1] [%] | HC50 [2] [µM] | growth of saliva microorganisms (CFU per ml versus incubation time) [3] | HC50 ([2]; red blood cells (RBC)) [µM] | hemolytic activity [4]
1 | CC(C)C[C@H](NC(=O)CNC(=O)CNC(=O)[C@@H](N)CCCNC(=N)N)C(=O)N[C@H]1CSSC[C@@H](C(=O)N[C@H](C(=O)NCC(=O)N[C@@H](CCCNC(=N)N)C(N)=O)C(C)C)NC(=O)[C@H](C(C)C)NC(=O)[C@@H]2CSSC[C@H](NC(=O)[C@H](Cc3ccc(O)cc3)NC1=O)C(=O)N[C@@H](CCCNC(=N)N)C(=O)NCC(=O)N[C@@H](CCCNC(=N)N)C(=O)N[C@@H](Cc1ccccc1)C(=O)N2 [IB-367] (H-RGGLCYCRGRFCVCVGR-NH2; disulfide 5-14, 7-12) | 45 | 7 | inhibited but proliferation is resumed after 30 minutes |  | 
2 | GIGKFLKKAKKFGKAFVKILKK-NH2 [MSI-78] |  |  |  | 45 | high degree of hemolysis
3 | CC[C@H](C)[C@H](NC(=O)[C@H](CCC(=O)O)NC(=O)[C@H](CCC(=O)O)NC(=O)[C@H](Cc1ccccc1)NC(=O)[C@H](CC(=O)O)NC(=O)CNC(=O)[C@H](CC(N)=O)NC(=O)CNC(=O)CNC(=O)CNC(=O)CNC(=O)[C@@H]1CCCN1C(=O)[C@H](CCCNC(=N)N)NC(=O)[C@@H]1CCCN1C(=O)[C@H](N)Cc1ccccc1)C(=O)N1CCC[C@H]1C(=O)N[C@@H](CCC(=O)O)C(=O)N[C@@H](CCC(=O)O)C(=O)N[C@@H](Cc1ccc(O)cc1)C(=O)N[C@@H](CC(C)C)C(=O)O [bivalirudin] |  |  |  |  | merely a “background level” activity
